Here are results for 25 compounds from patent publication US20100168102A9, “Amide Derivatives as Kinase Inhibitors” (Devgen NV, priority 2005, published 2010).

Read-outs that look alike come from different tables or passages of the source.

One experiment deals with T1, PKC epsilon (Homo sapiens, UniProt Q02156).
T1 construct: purchased Invitrogen P2282
T1 sequence (Q02156 1-737): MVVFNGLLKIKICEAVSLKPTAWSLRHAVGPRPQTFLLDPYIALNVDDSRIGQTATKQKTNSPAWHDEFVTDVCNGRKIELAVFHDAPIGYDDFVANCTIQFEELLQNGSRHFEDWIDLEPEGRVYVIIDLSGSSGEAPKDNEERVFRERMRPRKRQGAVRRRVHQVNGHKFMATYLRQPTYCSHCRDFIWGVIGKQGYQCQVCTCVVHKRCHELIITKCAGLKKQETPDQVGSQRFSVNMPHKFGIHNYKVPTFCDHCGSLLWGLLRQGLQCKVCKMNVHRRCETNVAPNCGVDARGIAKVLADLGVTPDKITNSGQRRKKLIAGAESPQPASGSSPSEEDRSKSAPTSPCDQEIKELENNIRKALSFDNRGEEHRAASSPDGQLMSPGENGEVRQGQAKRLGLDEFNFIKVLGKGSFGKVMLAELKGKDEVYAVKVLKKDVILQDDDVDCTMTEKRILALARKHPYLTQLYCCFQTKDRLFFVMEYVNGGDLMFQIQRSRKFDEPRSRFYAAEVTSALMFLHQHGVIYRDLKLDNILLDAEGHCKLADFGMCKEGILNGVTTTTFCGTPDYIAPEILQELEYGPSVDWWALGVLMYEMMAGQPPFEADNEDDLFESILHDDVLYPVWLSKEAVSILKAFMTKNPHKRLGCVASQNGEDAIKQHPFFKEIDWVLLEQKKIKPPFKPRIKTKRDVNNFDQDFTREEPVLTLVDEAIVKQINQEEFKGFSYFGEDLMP
The experiment is described as follows: Biochemical assay for PKC epsilon (fluorescence polarization, Protein Kinase C Assay Kit, Red). The settings on record: read-out: IC50 μM PKCε. The protocol:
The compounds were tested for inhibition of PKC epsilon.
The inhibition assays were performed with a fluorescence polarization (FP) assay using the commercially available Protein Kinase C Assay Kit, Red, from Invitrogen (Product ID. No. P2941), essentially in accordance with the protocol supplied by the manufacturer. […] The isozyme PKC epsilon was also obtained from Invitrogen (Product ID No. P2282).
Staurosporine was used as a positive control (2 μM).
To perform the assay, 2 μl of a solution of the compound to be tested in DMSO (at each concentration) was added to 6 μl of a solution of the enzyme in 10 mM HEPES, 5 mM dithiotreitol, 0.1% Triton X-100, pH 7.4. The final concentration of the enzymes was 10 ng/ml.
After incubating for 30 minutes at room temperature, 4 μl of a mixture of ATP and the protein substrate in 60 mM HEPES (pH7.4), 15 mM MgCl2, 0.3 mM CaCl2, 0.06% NP40 was added.
After incubating for 80 minutes at room temperature, 3 μl of a mix solution of 500 mM EDTA (stop solution) and the Rhodamine-based PKC Red Tracer (from the Protein Kinase C Assay Kit) in BGG/phosphate buffer (pH7.4) with 0.02% NaN3 and 0.1% Triton X-100 was added and 5 μl of a the Anti-Phosphoserine antibody (also from the Protein Kinase C Assay Kit) in BGG/phosphate buffer (pH7.4) with 0.02% NaN3.
The results were fitted to a curve using the XL-Fit algorithm and […] were calculated for each fitted curve, again using the XL-Fit algorithm.
On the technique in general: Fluorescence polarisation rises when a labelled molecule tumbles more slowly, as on binding a larger partner.

A further experiment deals with T2, human ROCKα/ROCKII mix (Homo sapiens, UniProt O75116).
T2 construct: purchased Upstate Biotechnology 14-451
The experiment can be described thus: Biochemical assay for ROCK (fluorescence polarization, ROCK IMAP Kit). The protocol: The compounds were tested for inhibition of human ROCKα/ROCKII mix.
The inhibition assays were performed with a fluorescence polarization (FP) assay using the commercially available ROCK IMAP Kit from Molecular Devices (Product ID. No. R8093), essentially in accordance with the protocol supplied by the manufacturer. […] The enzyme mix ROCKα/ROCKII was obtained from Upstate Biotechnology (Product ID No 14-451).
In summary, the compound was screened in the wells of a 384 well plate for enzymatic inhibition with concentrations varying from 100 μM to 0.3 nM using a stepwise 3 (or 2)-fold dilution.
To perform the assay, 1 μl of a solution of the compound to be tested in DMSO (at each concentration) was added to 2 μl of a solution of the enzyme in 10 mM Tris-HCl , 10 mM MgCl2, 0.1% BSA, 0.05% NaN3, pH 7.2. The final concentration of the enzyme was 2.6 nM.
After incubating for 30 minutes at room temperature, 2 μl of a mixture of ATP and the protein substrate in 10 mM Tris-HCl, 10 mM MgCl2, 0.1% BSA, 0.05% NaN3, pH 7.2 was added. The final concentration of the ATP was 10 μM and final concentration of protein substrate was 0.2 μM.
After incubating for 60 minutes at room temperature, 12 μl of the IMAP Binding Solution (mix of the IMAP Binding Buffer A (1×) and the IMAP Binding Reagent (from the ROCK IMAP kit)) was added.
The mixture thus obtained (total volume: 17 μl) was incubated for 60 minutes at room temperature, upon which the fluorescence polarization was measured using an automated plate reader (Perkin Elmer, Model Envision 2100-0010 HTS) with FP filters: excitation filter FITC FP 480 and emission filters FITC FP P-pol 535 and FITC FP S-pol 535 (Perkin-Elmer). The results were fitted to a curve using the XL-Fit algorithm and IC50 values were calculated for each fitted curve, again using the XL-Fit algorithm.

The mark [1] stands for this setting: compounds of Formula XIV, Table 3.
[2] abbreviates: Table 2, compounds of Formula XIII.

T2 sequence (O75116 11-552 limits assumed): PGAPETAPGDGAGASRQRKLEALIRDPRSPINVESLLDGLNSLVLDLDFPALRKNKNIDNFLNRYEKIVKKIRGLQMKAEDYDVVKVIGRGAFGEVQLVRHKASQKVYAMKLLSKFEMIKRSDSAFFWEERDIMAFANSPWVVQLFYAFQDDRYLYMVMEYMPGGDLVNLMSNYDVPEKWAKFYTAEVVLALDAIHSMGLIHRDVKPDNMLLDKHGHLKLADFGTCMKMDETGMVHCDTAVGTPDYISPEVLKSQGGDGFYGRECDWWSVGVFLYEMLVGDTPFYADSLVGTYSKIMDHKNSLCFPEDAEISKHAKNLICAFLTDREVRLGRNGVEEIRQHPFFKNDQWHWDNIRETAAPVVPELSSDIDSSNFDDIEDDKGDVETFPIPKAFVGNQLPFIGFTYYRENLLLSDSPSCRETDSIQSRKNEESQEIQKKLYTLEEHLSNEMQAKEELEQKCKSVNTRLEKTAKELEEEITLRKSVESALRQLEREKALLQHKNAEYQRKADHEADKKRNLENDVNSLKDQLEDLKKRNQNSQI

A word on the IC50: it is the concentration that inhibits the measured activity by half. Turning to `NC(CNC(=O)NCc1ccccc1)c1ccc(C(=O)Nc2ccncc2)cc1` (stereo not drawn) [Compound 7, 4-[1-amino-2-(3-benzyl-ureido)-ethyl]-N-pyridin-4-yl-benzamide], the IC50 at PKC epsilon lay in the range of 0.5 to 5 µM; at human ROCKα/ROCKII mix it was 0.05 to 0.5 µM. With `COc1ccc(NC(=O)NCC(N)c2ccc(C(=O)Nc3ccncc3)cc2)cc1` (stereo not drawn) [Compound 30, 4-{1-amino-2-[3-(4-methoxy-phenyl)-ureido]-ethyl}-N-pyridin-4-yl-benzamide], the figures for the IC50 on PKC epsilon and against human ROCKα/ROCKII mix were 0.5 to 5 µM and 0.05 to 0.5 µM, respectively.

On to `NC(CC(=O)NCc1ccccc1F)c1ccc(C(=O)Nc2ccncc2)cc1` (stereo not drawn) [Compound 256, 4-[1-Amino-2-(2-fluoro-benzylcarbamoyl)-ethyl]-N-pyridin-4-yl-benzamide], for which the concentration for half-maximal inhibition (IC50) was in the range of 0.5 to 5 µM on PKC epsilon (setting [1]) and 0.05 to 0.5 µM against human ROCKα/ROCKII mix (setting [1]). On to `CC(C)(C)ON=Cc1ccc(C(=O)NCC(N)c2ccc(C(=O)Nc3ccncc3)cc2)cc1` (racemic) [Compound 102, 4-{1-amino-2-[(4-tert-butoxyimino-methyl)-benzoylamino]-ethyl}-N-pyridin-4-yl-benzamide], for which the values for the IC50 on PKC epsilon (setting [2]) and on human ROCKα/ROCKII mix (setting [2]) were 5 to 50 µM and 0.5 to 5 µM, respectively. With `NC(c1ccc(C(=O)Nc2ccncc2)cc1)C1CCCN1C(=O)Cc1cc(F)ccc1F` (stereo not drawn) [Compound 579, 4-(Amino-{1-[2-(2,5-difluoro-phenyl)-acetyl]-pyrrolidin-2-yl}-methyl)-N-pyridin-4-yl-benzamide], the IC50 lay in the range of 5 to 50 µM on PKC epsilon and 0.5 to 5 µM against human ROCKα/ROCKII mix.

On human ROCKα/ROCKII mix, “4-(Amino-{1-[2-(4-fluoro-phenyl)-2-methyl-propionyl]-pyrrolidin-2-yl}-methyl)-N-pyridin-4-yl-benzamide [Compound 586]” displayed an IC50 of 0.5 to 5 µM. On the same count and under the same terms, the result for `NC(CNC(=O)Nc1ccc(F)cc1)c1ccc(C(=O)Nc2ccncc2)cc1` (stereo not drawn) [Compound 19, 4-{1-amino-2-[3-(4-fluoro-phenyl)-ureido]-ethyl}-N-pyridin-4-yl-benzamide] reads 0.05 to 0.5 µM. Consider “4-[1-Amino-2-(methyl- phenethyl-carbamoyl)-ethyl]- N-pyridin-4-yl-benzamide [Compound 282]”, for which the 50% inhibitory concentration (IC50) against human ROCKα/ROCKII mix (setting [1]) was 0.05 to 0.5 µM. In turn, “4-(1-Amino-2-{[1-(4-fluoro- phenyl)- cyclopropanecarbonyl]- methyl- amino}-ethyl)- N-pyridin-4-yl-benzamide [Compound 473]” came in with a 50% inhibitory concentration (IC50) on human ROCKα/ROCKII mix of 0.5 to 5 µM. Compound `CC(C)(C(=O)N1CCCC1C(N)c1ccc(C(=O)Nc2ccncc2)cc1)c1ccsc1` (stereo not drawn) [Compound 550, 4-{Amino-[1-(2-methyl-2-thiophen-3-yl-propionyl)-pyrrolidin-2-yl]-methyl}-N-pyridin-4-yl-benzamide] came in with an IC50 against human ROCKα/ROCKII mix of 0.5 to 5 µM.

“4-{Amino-[1-(2-methyl-2-thiophen-2-yl-propionyl)-pyrrolidin-2-yl]-methyl}-N-pyridin-4-yl-benzamide [Compound 548]”: the IC50 against human ROCKα/ROCKII mix fell in the range of 0.5 to 5 µM.

As for `Cc1ccc(NC(=O)CC(N)c2ccc(C(=O)Nc3ccncc3)cc2)cc1` (stereo not drawn) [Compound 317, 4-(1-Amino-2-p-tolylcarbamoyl-ethyl)-N-pyridin-4-yl-benzamide], the 50% inhibitory concentration (IC50) on human ROCKα/ROCKII mix (setting [1]) was 0.05 to 0.5 µM. “4-(1-Amino-2-{[2-(4-fluoro- phenyl)-2-methyl-propionyl]- methyl- amino}-ethyl)- N-pyridin-4-yl-benzamide [Compound 472]”: the 50% inhibitory concentration (IC50) on human ROCKα/ROCKII mix lay in the range of 0.5 to 5 µM. On the same count and under the same terms, the result for `COc1ccc(Cl)cc1NC(=O)NCC(N)c1ccc(C(=O)Nc2ccncc2)cc1` (stereo not drawn) [Compound 27, 4-{1-amino-2-[3-(5-chloro-2-methoxy-phenyl)-ureido]-ethyl}-N-pyridin-4-yl-benzamide] reads 0.05 to 0.5 µM.

For “4-(1-Amino-2-{[1-(4-chloro- phenyl)- cyclopropanecarbonyl]- methyl- amino}-ethyl)- N-pyridin-4-yl-benzamide [Compound 463]”, on human ROCKα/ROCKII mix, the IC50 is 0.5 to 5 µM.

On human ROCKα/ROCKII mix, `Cc1ccccc1CNC(=O)NCC(N)c1ccc(C(=O)Nc2ccncc2)cc1` (stereo not drawn) [Compound 9, 4-{1-amino-2-[3-(2-methyl-benzyl)-ureido]-ethyl}-N-pyridin-4-yl-benzamide] gave an IC50 of 0.05 to 0.5 µM. On the same count and under the same terms, to “4-(1-Amino-2-{[1-(4-chloro- phenyl)- cyclobutanecarbonyl]- methyl- amino}-ethyl)- N-pyridin-4-yl-benzamide [Compound 464]” belongs 0.5 to 5 µM. Consider `NC(CNC(=O)c1ccc2ccccc2n1)c1ccc(C(=O)Nc2ccncc2)cc1` (stereo not drawn) [Compound 112, Quinoline-2-carboxylic acid {2-amino-2-[4-(pyridin-4-ylcarbamoyl)-phenyl]-ethyl}-amide], for which the concentration for half-maximal inhibition (IC50) on human ROCKα/ROCKII mix (setting [2]) lay within 0.05 to 0.5 µM. `CN(Cc1ccccc1)C(=O)CC(N)c1ccc(C(=O)Nc2ccncc2)cc1` (stereo not drawn) [Compound 214, 4-[1-Amino-2-(benzyl-methyl-carbamoyl)-ethyl]-N-pyridin-4-yl-benzamide] returned an IC50 against human ROCKα/ROCKII mix (setting [1]) of 0.05 to 0.5 µM.

For “4-(1-Amino-2-{[1-(4-chloro- phenyl)- cyclopentanecarbonyl]- methyl- amino}-ethyl)- N-pyridin-4-yl-benzamide [Compound 465]”, at human ROCKα/ROCKII mix, the 50% inhibitory concentration (IC50) was in the range of 0.5 to 5 µM.

Turning to `CN(CC(N)c1ccc(C(=O)Nc2ccncc2)cc1)C(=O)C1CC(=O)c2ccccc21` (stereo not drawn) [Compound 508, 3-Oxo-indan-1-carboxylic acid {2-amino-2-[4-(pyridin-4-ylcarbamoyl)-phenyl]-ethyl}-methyl-amide], the 50% inhibitory concentration (IC50) on human ROCKα/ROCKII mix was 0.5 to 5 µM. The same measure, in the same setting: to “4-(1-Amino-2-{[2-(2,3,4- trimethoxy-phenyl)-acetyl]- methyl-amino}-ethyl)-N- pyridin-4-yl-benzamide [Compound 431]” belongs 5 to 50 µM; to `CN(CC(N)c1ccc(C(=O)Nc2ccncc2)cc1)C(=O)Cc1ccc(F)c(F)c1` (stereo not drawn) [Compound 484, 4-(1-Amino-2-{[2-(3,4-difluoro-phenyl)-acetyl]-methyl-amino}-ethyl)-N-pyridin-4-yl-benzamide], 0.5 to 5 µM; to “4-(1-Amino-2-{[2-(4-chloro- phenyl)-2-methyl-propionyl]- methyl- amino}-ethyl)- N-pyridin-4-yl-benzamide [Compound 462]”, 0.5 to 5 µM.

On human ROCKα/ROCKII mix, `COc1ccc(CNC(=O)NCC(N)c2ccc(C(=O)Nc3ccncc3)cc2)cc1` (stereo not drawn) [Compound 10, 4-{1-amino-2-[3-(4-methoxy-benzyl)-ureido]-ethyl}-N-pyridin-4-yl-benzamide] returned an IC50 of 0.05 to 0.5 µM.
